# From patent EP3826985B1, “DENDRIMER-TYPE COMPOUNDS, METHODS FOR PRODUCING SAME, AND USES THEREOF” (Université De Reims Champagne-Ardenne, priority 2018, dated 2020)
# Assay: Metal cation trapping by dendrimer (dialysis, ICP-AES)
# Experimental: Une solution aqueuse contenant l'ion métallique (6 mL, Cf = 4.10^-5 mol/L) a été mélangée avec une solution aqueuse de II.6 (6 mL; 2.10^-6 mol/L); la solution résultante a été agitée pendant 2h à une vitesse d'agitation de 300 tours/min à température ambiante.
# Une dialyse d'une heure a été réalisée en utilisant une membrane d'ester de cellulose (Cutoff 1000) dans de l'eau distillée (1L). Pour déterminer la quantité d'ion métallique extraite par le dendrimère, 10 mL de l'eau de dialyse ont été prélevés pour l'analyse ICP-AES (Spectrométrie à plasma à couplage inductif - Spectrométrie d'Emission Atomique).
# L'analyse de l'eau de dialyse par ICP-AES (Thermo Scientific, iCAP 6000 Séries) a permis d'obtenir la quantité de métal résiduelle. La quantité d'ions (M^n+) présente dans la phase dendrimère a été obtenue par différence entre la quantité initiale et la quantité résiduelle.
# Le pourcentage de rétention (% R) a été calculé selon l'expression suivante : %R = (n(Maq(initial))−n(Maq(final)))/(n Maq(initial)) × 100 [formula] avec n (Maq(initial)) et n (Maq(final)), les nombres de moles d'ions métalliques respectivement dans la solution de départ et dans l'eau de dialyse après extraction.
smiles,measurement,setting,value
OCC(O)COCC(COCC(COCC(COCC(COCC(COCC(O)CO)OCC(O)CO)OCC(COCC(O)CO)OCC(O)CO)OCC(COCC(COCC(O)CO)OCC(O)CO)OCC(COCC(O)CO)OCC(O)CO)OCC(COCC(O)CO)OCC(O)CO)OCC(O)CO (stereo not shown) [II.6],% R,"Ag^+, Rapport n (Maq (initial)) / n (II.6) = 104,5",88%
same,% R,"Cd^2+, Rapport n (Maq (initial)) / n (II.6) = 73","95,5%"
same,% R,"Ce^3+, Rapport n (Maq (initial)) / n (II.6) = 93",>95%
same,% R,"Cu^2+, Rapport n (Maq (initial)) / n (II.6) = 63,6",75%
same,% R,"Hg^2+, Rapport n (Maq (initial)) / n (II.6) = 140",85%
same,% R,"Ni^2+, Rapport n (Maq (initial)) / n (II.6) = 85,5",89%
same,% R,"Pb^2+, Rapport n (Maq (initial)) / n (II.6) = 77",99%
